# Read-outs that look alike come from different tables or passages of the source. Starred links: 1 amine or outer side, 2 acyl side, 3 side chain; linkers in the order of their positions; H or OH if unused. Positions of bridges follow the written chain, without caps; N, C: chain ends. Residues, ends and D or L forms follow the SMILES beside them. *: point of attachment. C20 diacid = O=C(O)CCCCCCCCCCCCCCCCCCC(=O)*; γGlu = O=C(O)[C@H](CCC(=O)[*:2])N[*:1]
# How the values were obtained:
# [1] = Assay (I) efficacy testing on appetite (food intake), ad libitum fed rat model; type: in vivo, Sprague Dawley (SD) rats; conditions: 3 nmol/kg
# How it was run: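 Single ip, po or sc dosing (0.01-3 mg/kg, by body weight) at the start of the dark phase, in individually housed Sprague Dawley rats of 200-250 g with free food and water. Intake was logged per rat each hour to 7 h, then at 24 h (occasionally 48 h), against a vehicle group; outliers removed by Grubbs test.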
# [2] = Assay (III) ThT fibrillation assay for physical stability; type: physicochemical; conditions: for Th T pH 4.0 lag time (h): 37° C., orbital shaking 960 rpm; for ThT pH 4.0 lag time: Table 9
# How it was run: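 Freshly prepared samples, pH adjusted with NaOH and HClO4 or HCl, received ThT at 1 μM final and were incubated at 37° C with orbital shaking at 960 rpm. Fluorescence (ex 444 nm, em 485 nm) was read every 20 minutes; […], with polypeptide concentration by reverse HPLC before and after.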
# [3] = test system: amylin receptor versus calcitonin receptor; conditions: cited from earlier work
Compound,Th T pH 4.0 lag time (h) [2],ThT pH 4.0 lag time [2],Food intake reduction 0-24 h 3 nmol/kg (%) [1],Food intake reduction 24-48 h 3 nmol/kg (%) [1],times more potent on the amylin receptor than on the calcitonin receptor [3],times more potent on the amylin receptor than on the calcitonin receptor ([3]; listed as Pramlintide)
"CC[C@H](C)[C@H](NC(=O)[C@@H]1CCCN1C(=O)CNC(=O)[C@H](Cc1ccccc1)NC(=O)[C@H](CC(N)=O)NC(=O)[C@H](CC(N)=O)NC(=O)[C@H](CO)NC(=O)[C@H](CO)NC(=O)[C@H](Cc1c[nH]cn1)NC(=O)[C@H](Cc1c[nH]cn1)NC(=O)[C@H](CC(C)C)NC(=O)[C@H](Cc1ccccc1)NC(=O)[C@H](CCC(=O)O)NC(=O)[C@H](C)NC(=O)[C@H](CC(C)C)NC(=O)[C@H](CCCNC(=N)N)NC(=O)[C@H](CCC(N)=O)NC(=O)[C@@H](NC(=O)[C@H](C)NC(=O)[C@@H]1CSSC[C@H](NC(=O)[C@H](CCCCN)NC(=O)CC[C@H](NC(=O)CCCCCCCCCCCCCCCCCCC(=O)O)C(=O)O)C(=O)N[C@@H](CC(N)=O)C(=O)N[C@@H]([C@@H](C)O)C(=O)N[C@@H](C)C(=O)N[C@@H]([C@@H](C)O)C(=O)N1)[C@@H](C)O)C(=O)N[C@@H](CC(C)C)C(=O)N1CCC[C@H]1C(=O)N1CCC[C@H]1C(=O)N[C@H](C(=O)N[C@@H](CC(N)=O)C(=O)N[C@H](C(=O)NCC(=O)N[C@@H](CO)C(=O)N[C@@H](CC(N)=O)C(=O)N[C@H](C(=O)N1CCC[C@H]1C(N)=O)[C@@H](C)O)C(C)C)[C@@H](C)O [Example 52, N-alpha-[(S)-4-Carboxy-4-(19-carboxynonadecanoylamino)butyryl]-[Glu14, His17, Pro37]-pramlintide] ({C20 diacid-γGlu}-KCNTATCATQRLAEFLHHSSNNFGPILPPTNVGSNTP-NH2; disulfide 2-7)",>45 h,>45 hr,62%,74%,–,–
"CC[C@H](C)[C@H](NC(=O)[C@@H]1CCCN1C(=O)CNC(=O)[C@H](Cc1ccccc1)NC(=O)[C@H](CC(N)=O)NC(=O)[C@H](CC(N)=O)NC(=O)[C@H](CO)NC(=O)[C@H](CO)NC(=O)[C@H](Cc1c[nH]cn1)NC(=O)[C@H](CCCNC(=N)N)NC(=O)[C@H](CC(C)C)NC(=O)[C@H](Cc1ccccc1)NC(=O)[C@H](CCC(=O)O)NC(=O)[C@H](C)NC(=O)[C@H](CC(C)C)NC(=O)[C@H](CCCNC(=N)N)NC(=O)[C@H](CCC(N)=O)NC(=O)[C@@H](NC(=O)[C@H](C)NC(=O)[C@@H]1CSSC[C@H](NC(=O)[C@H](Cc2c[nH]cn2)NC(=O)CNC(=O)CC[C@H](NC(=O)CCCCCCCCCCCCCCCCCCC(=O)O)C(=O)O)C(=O)N[C@@H](CC(N)=O)C(=O)N[C@@H]([C@@H](C)O)C(=O)N[C@@H](C)C(=O)N[C@@H]([C@@H](C)O)C(=O)N1)[C@@H](C)O)C(=O)N[C@@H](CC(C)C)C(=O)N1CCC[C@H]1C(=O)N1CCC[C@H]1C(=O)N[C@H](C(=O)N[C@@H](CC(N)=O)C(=O)N[C@H](C(=O)NCC(=O)N[C@@H](CO)C(=O)N[C@@H](CC(N)=O)C(=O)N[C@H](C(=O)N1CCC[C@H]1C(N)=O)[C@@H](C)O)C(C)C)[C@@H](C)O [Example 89, N-alpha-[(S)-4-Carboxy-4-(19-carboxynonadecanoylamino)butyryl]-Gly-[His1, Glu14, Arg17, Pro37]-pramlintide] ({C20 diacid-γGlu}-GHCNTATCATQRLAEFLRHSSNNFGPILPPTNVGSNTP-NH2; disulfide 3-8)",>45 h,>45 hr,42%,23%,–,–
"CC[C@H](C)[C@H](NC(=O)[C@@H]1CCCN1C(=O)CNC(=O)[C@H](Cc1ccccc1)NC(=O)[C@H](CC(N)=O)NC(=O)[C@H](CC(N)=O)NC(=O)[C@H](CO)NC(=O)[C@H](CO)NC(=O)[C@H](Cc1c[nH]cn1)NC(=O)[C@H](Cc1c[nH]cn1)NC(=O)[C@H](CC(C)C)NC(=O)[C@H](Cc1ccccc1)NC(=O)[C@H](CCC(=O)O)NC(=O)[C@H](C)NC(=O)[C@H](CC(C)C)NC(=O)[C@H](CCCNC(=N)N)NC(=O)[C@H](CCC(N)=O)NC(=O)[C@@H](NC(=O)[C@H](C)NC(=O)[C@@H]1CSSC[C@H](NC(=O)[C@H](CCCNC(=N)N)NC(=O)CNC(=O)CC[C@H](NC(=O)CCCCCCCCCCCCCCCCCCC(=O)O)C(=O)O)C(=O)N[C@@H](CC(N)=O)C(=O)N[C@@H]([C@@H](C)O)C(=O)N[C@@H](C)C(=O)N[C@@H]([C@@H](C)O)C(=O)N1)[C@@H](C)O)C(=O)N[C@@H](CC(C)C)C(=O)N1CCC[C@H]1C(=O)N1CCC[C@H]1C(=O)N[C@H](C(=O)N[C@@H](CC(N)=O)C(=O)N[C@H](C(=O)NCC(=O)N[C@@H](CO)C(=O)N[C@@H](CC(N)=O)C(=O)N[C@H](C(=O)N1CCC[C@H]1C(N)=O)[C@@H](C)O)C(C)C)[C@@H](C)O [Example 101, N-alpha-[(S)-4-Carboxy-4-(19-carboxynonadecanoylamino)butyryl]-Gly-[Arg1, Glu14, His17, Pro37]-pramlintide] ({C20 diacid-γGlu}-GRCNTATCATQRLAEFLHHSSNNFGPILPPTNVGSNTP-NH2; disulfide 3-8 (inferred); C-terminus assumed)",>45 h,>45 hr,70%,90%,–,–
pramlintide,–,–,–,–,14 times,approximately 14 times

# Second part, led by results:
Th T pH 4.0 lag time (h) [2],ThT pH 4.0 lag time [2],Compound,Food intake reduction 0-24 h 3 nmol/kg (%) [1],Food intake reduction 24-48 h 3 nmol/kg (%) [1],times more potent on the amylin receptor than on the calcitonin receptor [3],times more potent on the amylin receptor than on the calcitonin receptor ([3]; listed as Pramlintide)
>45 h,>45 hr,"CC[C@H](C)[C@H](NC(=O)[C@@H]1CCCN1C(=O)CNC(=O)[C@H](Cc1ccccc1)NC(=O)[C@H](CC(N)=O)NC(=O)[C@H](CC(N)=O)NC(=O)[C@H](CO)NC(=O)[C@H](CO)NC(=O)[C@H](Cc1c[nH]cn1)NC(=O)[C@H](CCCNC(=N)N)NC(=O)[C@H](CC(C)C)NC(=O)[C@H](Cc1ccccc1)NC(=O)[C@H](CCC(=O)O)NC(=O)[C@H](C)NC(=O)[C@H](CC(C)C)NC(=O)[C@H](CCCNC(=N)N)NC(=O)[C@H](CCC(N)=O)NC(=O)[C@@H](NC(=O)[C@H](C)NC(=O)[C@@H]1CSSC[C@H](NC(=O)[C@H](CCCCN)NC(=O)CC[C@H](NC(=O)CCCCCCCCCCCCCCCCCCC(=O)O)C(=O)O)C(=O)N[C@@H](CC(N)=O)C(=O)N[C@@H]([C@@H](C)O)C(=O)N[C@@H](C)C(=O)N[C@@H]([C@@H](C)O)C(=O)N1)[C@@H](C)O)C(=O)N[C@@H](CC(C)C)C(=O)N1CCC[C@H]1C(=O)N1CCC[C@H]1C(=O)N[C@H](C(=O)N[C@@H](CC(N)=O)C(=O)N[C@H](C(=O)NCC(=O)N[C@@H](CO)C(=O)N[C@@H](CC(N)=O)C(=O)N[C@H](C(=O)N1CCC[C@H]1C(N)=O)[C@@H](C)O)C(C)C)[C@@H](C)O [Example 53, N-alpha-[(S)-4-Carboxy-4-(19-carboxynonadecanoylamino)butyryl]-[Glu14, Arg17, Pro37]-pramlintide]",40%,28%,–,–
>45 h,>45 hr,"CC[C@H](C)[C@H](NC(=O)[C@@H]1CCCN1C(=O)CNC(=O)[C@H](Cc1ccccc1)NC(=O)[C@H](CC(N)=O)NC(=O)[C@H](CC(N)=O)NC(=O)[C@H](CO)NC(=O)[C@H](CO)NC(=O)[C@H](Cc1c[nH]cn1)NC(=O)[C@H](Cc1c[nH]cn1)NC(=O)[C@H](CC(C)C)NC(=O)[C@H](Cc1ccccc1)NC(=O)[C@H](CCC(=O)O)NC(=O)[C@H](C)NC(=O)[C@H](CC(C)C)NC(=O)[C@H](CCCNC(=N)N)NC(=O)[C@H](CCC(N)=O)NC(=O)[C@@H](NC(=O)[C@H](C)NC(=O)[C@@H]1CSSC[C@H](NC(=O)[C@H](CCCNC(=N)N)NC(=O)CC[C@H](NC(=O)CCCCCCCCCCCCCCCCCCC(=O)O)C(=O)O)C(=O)N[C@@H](CC(N)=O)C(=O)N[C@@H]([C@@H](C)O)C(=O)N[C@@H](C)C(=O)N[C@@H]([C@@H](C)O)C(=O)N1)[C@@H](C)O)C(=O)N[C@@H](CC(C)C)C(=O)N1CCC[C@H]1C(=O)N1CCC[C@H]1C(=O)N[C@H](C(=O)N[C@@H](CC(N)=O)C(=O)N[C@H](C(=O)NCC(=O)N[C@@H](CO)C(=O)N[C@@H](CC(N)=O)C(=O)N[C@H](C(=O)N1CCC[C@H]1C(N)=O)[C@@H](C)O)C(C)C)[C@@H](C)O [Example 96, N-alpha-[(S)-4-Carboxy-4-(19-carboxynonadecanoylamino)butyryl]-[Arg1, Glu14, His17, Pro37]-pramlintide] ({C20 diacid-γGlu}-RCNTATCATQRLAEFLHHSSNNFGPILPPTNVGSNTP-NH2; disulfide 2-7)",69%,89%,–,–
>45 h,>45 hr,"CC[C@H](C)[C@H](NC(=O)[C@@H]1CCCN1C(=O)CNC(=O)[C@H](Cc1ccccc1)NC(=O)[C@H](CO)NC(=O)[C@H](CO)NC(=O)[C@H](CO)NC(=O)[C@H](CO)NC(=O)[C@H](CCCNC(=N)N)NC(=O)[C@@H](NC(=O)[C@H](CC(C)C)NC(=O)[C@H](Cc1ccccc1)NC(=O)[C@H](CCC(=O)O)NC(=O)[C@H](C)NC(=O)[C@H](CC(C)C)NC(=O)[C@H](CCCNC(=N)N)NC(=O)[C@H](CCC(N)=O)NC(=O)[C@@H](NC(=O)[C@H](C)NC(=O)[C@@H]1CSSC[C@H](NC(=O)[C@H](CCCCN)NC(=O)CC[C@H](NC(=O)CCCCCCCCCCCCCCCCCCC(=O)O)C(=O)O)C(=O)N[C@@H](CC(N)=O)C(=O)N[C@@H]([C@@H](C)O)C(=O)N[C@@H](C)C(=O)N[C@@H]([C@@H](C)O)C(=O)N1)[C@@H](C)O)C(C)C)C(=O)N[C@@H](CC(C)C)C(=O)N[C@@H](CO)C(=O)N[C@@H](CO)C(=O)N[C@H](C(=O)N[C@@H](CC(=O)O)C(=O)N[C@H](C(=O)NCC(=O)N[C@@H](CO)C(=O)N[C@@H](CC(=O)O)C(=O)N[C@H](C(=O)N1CCC[C@H]1C(N)=O)[C@@H](C)O)C(C)C)[C@@H](C)O [Example 170, N-alpha-[(S)-4-Carboxy-4-(19-carboxynonadecanoylamino)butyryl]-[Glu14, Arg18, Ser21, Ser22, Ser28, Ser29, Asp31, Asp35, Pro37]-pramlintide] ({C20 diacid-γGlu}-KCNTATCATQRLAEFLVRSSSSFGPILSSTDVGSDTP-NH2; disulfide 2-7 (inferred); C-terminus assumed)",–,–,–,–
